# Laboratory results published in US20080004200A1, “Enzyme stabilization” (priority 2006, published 2008).
# Where a SMILES comes first, the peptide text is derived from it. The star is where a group is joined. Moc = COC(=O)*
# System: Gram negative bacteria
# Assay: Gram negative cocktail challenge test in inoculated standard liquid laundry detergent
# Format: cell-based
# Details: inhibitor 0.004% by weight in standard liquid laundry detergent; for Count (log viable cells): stored at 35° C.
# Procedure: To determine if a compound is capable of at least inhibiting the growth of at least one Gram negative bacteria in the liquid detergent the following test is performed.
# A mixture of Gram negative bacteria, also known as a Gram negative cocktail or cocktail, is prepared. The Gram negative cocktail comprises a mixture of Pseudomonas aeruginosa ATCC 9027, Pseudomonas fluorescens ATCC 13525, Burkholderia (Pseudomonas) cepacia ATCC 25416, Klebsiella oxytoca ATCC 13182, Escherichia coli ATCC 8739, Citrobacter freundii ATCC 8090 and Serratia liquefaciens ATCC 27592. The Gram negative bacterial cocktail is prepared by growing each organism individually on plates containing a growth medium and picking isolated colonies for preparation of the Gram negative cocktail. The growth medium is TSA (tryptic soy agar, available from Becton Dickinson). TSA contains per liter water: 15 g pancreatic digest of casein, 5 g enzymatic digest of soy bean meal, 5 g sodium chloride, and 15 g agar with the pH adjusted to 7.3±0.2 using hydrochloric acid, HCL (J. T. Baker).
# The individually selected colonies are added to sterilized saline and adjusted to a McFarland standard of #2 (Available from bioMerieux, Inc.) to prepare a standardized saline suspension for the organism. This is repeated for each organism individually, thereby by preparing a standardized saline suspension for each organism. An equal volume (1 ml) of each standardized saline suspension of the following cocktail members are mixed together: Pseudomonas aeruginosa ATCC 9027, Pseudomonas fluorescens ATCC 13525, Burkholderia (Pseudomonas) cepacia ATCC 25416, Klebsiella oxytoca ATCC 13182, Escherichia coli ATCC 8739, Citrobacter freundii ATCC 8090 and Serratia liquefaciens ATCC 27592.
# An inoculated liquid laundry detergent is prepared by the addition to 49.5 ml of the standard liquid laundry detergent, described in Table A below, of 0.5 ml of the Gram negative bacterial cocktail as prepared above. This standard liquid laundry detergent also contains from about 0.00001% to about 5%, by weight of the composition, of one or more of the tripeptide enzyme inhibitors described herein.
# As the cocktail contains approximately 10^7 to 10^8 cfu/ml (colony forming units/ml); the resulting inoculum level in the inoculated liquid laundry detergent is 10^5 to 10^6 cfu/ml. The inoculated liquid laundry detergent is stored at 35° C., a relative humidity of about 60% and at standard pressure, i.e. 1 atmosphere. Samples of Iml are removed from the inoculated liquid laundry detergent at the following times, 1 day, 2 days, 7 days, 14 days, 21 days and 28 days. These 1 ml samples, are immediately neutralized by addition to a neutralizer, namely polyvalent universal neutralizer (PVUN) which contains (per liter distilled water): 30 g Polysorbate 80 (Available under the brand Tween 80, from VWR International), 5 g Sodium thiosulfate, Ig L-Histidine, Ig Peptone, 8.5 g Sodium chloride, 14.3 g Lecithin with the pH adjusted to 7.0±0.2 with HCL.
# Each neutralized sample is then subjected to a serial dilution, to the 10^−5 dilution to allow full enumeration of the surviving microbial population. For example, 1 ml of sample is added to 9 ml of PVUN, resulting in a 1:10 dilution, or 10^−1 dilution. A 1 ml sample of this 1:10 dilution is then added to another 9 ml PVUN, resulting in a 1:100 dilution, or 10^−2 dilution, and so on. Serial dilutions are carried out to 10^−5. 1.0 ml of the various dilutions (10^−1 or 10^−5) are then either spread or pour plated on TSA (tryptic soy agar, Becton Dickinson) and are then incubated for 72 hours at 35° C.±2° C.
# After incubation, the plates are counted and recorded as cfu/ml survival vs. time (days 1, 2, 7, 14, 21, and 28 days). Results are recorded as log viable cells on specified sampling days. […]
compound,measurement,setting,value
COC(=O)N[C@H](C(=O)N[C@@H](C)C(=O)N[C@H](C=O)CC(C)C)C(C)C (Moc-Val-Ala-Leu-aldehyde),Count (log viable cells),"Day 1, inoculum 10^5 to 10^6 cfu/ml",4.7 log viable cells
same,Count (log viable cells),Day 2,4.0 log viable cells
same,Count (log viable cells),Day 7,<0.1 log viable cells
same,Count (log viable cells),Day 14,<0.1 log viable cells
same,Count (log viable cells),Day 21,<0.1 log viable cells
same,Count (log viable cells),Day 28,<0.1 log viable cells
same,Growth of Gram negative bacteria in liquid laundry detergents,,prevents the growth of Gram negative bacteria
